From US11136327B2, “Macrocycles as factor XIA inhibitors” (Bristol-Myers Squibb Company, priority 2010, dated 2021)
Where two headings read alike, the source gives them in different places.

Tests used:
[1] = molecular target: purified human Factor XIa (Homo sapiens (Human), UniProt P03951); test: Factor XIa enzyme inhibition assay (chromogenic substrate S-2366); format: biochemical; details: substrate S-2366, pH 7.4
Experimental: The effectiveness of compounds of the present invention as inhibitors of the coagulation Factors XIa, VIIa, IXa, Xa, XIIa, plasma kallikrein or thrombin, can be determined using a relevant purified serine protease, respectively, and an appropriate synthetic substrate. The rate of hydrolysis of the chromogenic or fluorogenic substrate by the relevant serine protease was measured both in the absence and presence of compounds of the present invention. […] A decrease in the rate of absorbance or fluorescence change in the presence of inhibitor is indicative of enzyme inhibition. Such methods are known to one skilled in the art. The results of this assay are expressed as the inhibitory constant, Ki.
Values of Ki were determined by allowing the protease to react with the substrate in the presence of the inhibitor. Reactions were allowed to go for periods of 20-180 minutes (depending on the protease) and the velocities (rate of absorbance or fluorescence change versus time) were measured. The following relationships were used to calculate Ki values: (vo−vs)/vs=I/(Ki(1+S/Km)) for a competitive inhibitor with one binding site; or vs/vo=A+((B−A)/1+((IC50/(I)n))); and Ki=IC50/(1+S/Km) for a competitive inhibitor where: […]

[2] = not given; remark: listed apart in the source
[3] = from C=CCCCc1ccccc1-c1cn(COCC[Si](C)(C)C)c([C@H](CC=C)NC(=O)OC(C)(C)C)n1, rcm bond, 12-membered ring, Grubbs II (0.4 eq)/pTsOH, DCM, 0.97 mM, 40.0 °C, 1.0 h
[4] = from C=CCCOc1ccccc1-c1cn(COCC[Si](C)(C)C)c([C@H](CC=C)NC(=O)OC(C)(C)C)n1, rcm bond, 12-membered ring, Grubbs II (1 eq)/pTsOH, DCM, 1.02 mM, 40.0 °C, 1.0 h

Chain of purified human Factor XIa (P03951 388-625): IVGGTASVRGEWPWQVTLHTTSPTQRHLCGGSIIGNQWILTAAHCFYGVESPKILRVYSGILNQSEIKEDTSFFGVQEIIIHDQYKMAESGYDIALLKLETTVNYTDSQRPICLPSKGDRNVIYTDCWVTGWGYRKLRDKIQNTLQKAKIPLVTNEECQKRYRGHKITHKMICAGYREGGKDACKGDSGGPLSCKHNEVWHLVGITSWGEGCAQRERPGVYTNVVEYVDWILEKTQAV
Chain of purified human Factor XIa (P03951 19-387 partner): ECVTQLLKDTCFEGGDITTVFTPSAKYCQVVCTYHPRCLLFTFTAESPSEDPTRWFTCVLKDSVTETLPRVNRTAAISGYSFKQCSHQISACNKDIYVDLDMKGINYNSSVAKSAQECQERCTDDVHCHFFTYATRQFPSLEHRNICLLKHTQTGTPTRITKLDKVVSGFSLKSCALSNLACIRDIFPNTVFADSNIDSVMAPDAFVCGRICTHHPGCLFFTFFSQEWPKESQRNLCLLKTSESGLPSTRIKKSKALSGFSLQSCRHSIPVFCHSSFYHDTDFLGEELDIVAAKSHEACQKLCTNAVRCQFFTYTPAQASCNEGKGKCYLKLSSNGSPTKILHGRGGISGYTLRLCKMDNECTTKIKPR

With CC(C)(C)OC(=O)N[C@H]1C/C=C\CCCc2ccccc2-c2cn(COCC[Si](C)(C)C)c1n2 the ring closure, isolated yield [3] was 17.6%.
For CC(C)(C)OC(=O)N[C@H]1C/C=C\CCOc2ccccc2-c2cn(COCC[Si](C)(C)C)c1n2, the ring closure, isolated yield [4] was 9%.
Work on COC(=O)Nc1ccc2c(c1)CCCN(C)C(=O)C[C@H](NC(=O)OC(C)(C)C)c1nc-2cn1COCC[Si](C)(C)C yielded a ring closure, isolated yield (from CNCCCc1cc(NC(=O)OC)ccc1-c1cn(COCC[Si](C)(C)C)c([C@H](CC(=O)O)NC(=O)OC(C)(C)C)n1, amide bond, 12-membered ring, BOP/DIEA/DMAP, DCM/DMF, 8.6 mM, 25.0 °C, 2.0 h) of 39.4%.
COC(=O)Nc1ccc2c(c1)NC(=O)CC/C=C/CC(NC(=O)/C=C/c1cc(Cl)ccc1-n1cnnn1)c1cc-2nnc1Cl (centres unmarked) [Example 89, {(E)-17-Chloro-15-[(E)-3-(5-chloro-2-tetrazol-1-yl-phenyl)-acryloylamino]-9-oxo-8,18,19-triaza-tricyclo[14.3.1.0^2,7]icosa-1(20),2,4,6,12,16,18-heptaen-5-yl}-carbamic Acid Methyl Ester] showed a Ki [1] of 1060 nM.
For COC(=O)Nc1ccc2c(c1)N[C@@H](C(=O)NCc1ccccn1)CCCC[C@H](NC(=O)/C=C/c1cc(Cl)ccc1-n1cnnn1)c1cc-2ccn1 [II-58], the Ki [1] was 21 nM.
CC(C)(C)OC(=O)N[C@H]1C/C=C/CCCc2ccccc2-c2cn(COCC[Si](C)(C)C)c1n2 gave a ring closure, isolated yield [3] of 45.3%.
With COC(=O)Nc1ccc2c(c1)NC(=O)C/C=C/CC(NC(=O)OC(C)(C)C)c1cc-2nc(C)n1 (centres unmarked) the ring closure, isolated yield (from C=CCC(=O)Nc1cc(NC(=O)OC)ccc1-c1cc(C(CC=C)NC(=O)OC(C)(C)C)nc(C)n1, rcm bond, 12-membered ring, Grubbs II (0.4 eq)/HCl, DCM, 0.5 mM, 40.0 °C, 4.0 h) was 22%.
COC(=O)Nc1ccc2c(c1)NC(=O)CC/C=C/C[C@H](NC(=O)OC(C)(C)C)C1=NN=C2O1 showed a ring closure, isolated yield (from -[5-((S)-1-tert-Butoxycarbonylamino-but-3-enyl)-1,3,4-oxadiazol-2-yl]-3-pent-4-enoylamino-phenyl}-carbamic acid methyl ester, rcm bond, 13-membered ring, Grubbs II (0.36 eq), DCE, 0.61 mM, 75.0 °C) of 19.1%.
In the case of COC(=O)c1ccc2c(c1)OCCNC(=O)CC(NC(=O)OC(C)(C)C)c1cc-2nnc1Cl (centres unmarked), the ring closure, yield after HPLC ([2]; from COC(=O)c1ccc(-c2cc(C(CC(=O)O)NC(=O)OC(C)(C)C)c(Cl)nn2)c(OCCN)c1, amide bond, 12-membered ring, BOP/DIEA/DMAP, DCM/DMF, 1.28 mM, 2.5 h) is reported as 15.3%.
Work on COC(=O)Nc1ccc2c(c1)NC(=O)CC/C=C/CC(NC(=O)OC(C)(C)C)c1cc-2nnc1Cl (centres unmarked) yielded a ring closure, isolated yield (from C=CCCC(=O)Nc1cc(NC(=O)OC)ccc1-c1cc(C(CC=C)NC(=O)OC(C)(C)C)c(Cl)nn1, rcm bond, 13-membered ring, Grubbs II, DCM, 6.6 mM, 1.0 h) of 56%.
With COC(=O)Nc1ccc2c(c1)NC(=O)CCN(C(=O)OC(C)(C)C)C[C@H](NC(=O)OCc1ccccc1)c1nc-2cn1COCC[Si](C)(C)C the ring closure, isolated yield (from COC(=O)Nc1ccc(-c2cn(COCC[Si](C)(C)C)c([C@H](CN(CCC(=O)O)C(=O)OC(C)(C)C)NC(=O)OCc3ccccc3)n2)c(N)c1, amide bond, 12-membered ring, BOP/DIEA, DCM/DMF, 0.93 mM, 25.0 °C, 5.0 h) was 87%.
COC(=O)Nc1ccc2c(c1)N[C@@H](C(=O)OC)CC=CC[C@H](NC(=O)OC(C)(C)C)c1nc-2cn1COCC[Si](C)(C)C gave a ring closure, isolated yield (from C=CC[C@H](NC(=O)OC(C)(C)C)c1nc(-c2ccc(NC(=O)OC)cc2N[C@H](CC=C)C(=O)OC)cn1COCC[Si](C)(C)C, rcm bond, 12-membered ring, Grubbs II (0.4 eq), DCE, 40.0 mM, 120.0 °C, 0.33 h) of 30%.
Work on CC(C)(C)OC(=O)N[C@H]1C/C=C\CCC(=O)Nc2ccccc2C2=NN=C1O2 (mixture of isomers) yielded a ring closure, yield after HPLC ([2]; from C=CCCC(=O)Nc1ccccc1-c1nnc([C@H](CC=C)NC(=O)OC(C)(C)C)o1, rcm bond, 13-membered ring, Grubbs II, DCM, 4.8 mM, 75.0 °C, 1.5 h) of 27%.
For “(S)-Methyl N-4-(2-(1-(tert-butoxycarbonylamino)but-3-enyl)-1-((2-(trimethylsilyl)ethoxy)methyl)-1H-imidazol-4-yl)-3-(4-methylpent-4-enamido)phenylmethanimidoperoxoate”, the ring closure, isolated yield (the molecule shown is the open-chain precursor, rcm bond, 13-membered ring, Grubbs II (0.2 eq), microwave, DCE, 105.0 mM, 120.0 °C) was 34.6%.
With CC(C)(C)OC(=O)N[C@H]1C/C=C/CCOc2ccccc2-c2cn(COCC[Si](C)(C)C)c1n2 the ring closure, isolated yield [4] was 20%.
Molecule COC(=O)Nc1ccc2c(c1)NC(=O)CC/C=C/C[C@H](NC(=O)OC(C)(C)C)c1cc-2ccn1 has a ring closure, yield after HPLC ([2]; from C=CCCC(=O)Nc1cc(NC(=O)OC)ccc1-c1ccnc([C@H](CC=C)NC(=O)OC(C)(C)C)c1, rcm bond, 13-membered ring, Grubbs II/pTsOH, DCM, 0.99 mM, 40.0 °C, 1.5 h) of 75%.
For COC(=O)Nc1ccc2c(c1)N(C(=O)C(F)(F)F)[C@@H](C(=O)OC)CC=CC[C@H](NC(=O)OC(C)(C)C)c1nc-2cn1COCC[Si](C)(C)C, the ring closure, isolated yield (from C=CC[C@H](NC(=O)OC(C)(C)C)c1nc(-c2ccc(NC(=O)OC)cc2N(C(=O)C(F)(F)F)[C@H](CC=C)C(=O)OC)cn1COCC[Si](C)(C)C, rcm bond, 12-membered ring, Grubbs II (15 mol%), DCE, 37.3 mM, 84.0 °C, 15.0 h) was 37%.
